Assay [1] can be described thus: Counterscreen for […] of the human trace amine associated receptor 1 (TAAR1): Fluorescence-based cell-based high throughput dose response assay to identify nonselective Ga16 agonists. The assay is classed as functional.
Assay [2] in a line: Counterscreen for antagonists of the human trace amine associated receptor 1 (hTAAR1): Fluorescence-based cell-based high throughput dose response assay to identify nonselective Ga16 antagonists. The assay is classed as functional.
For assay [3], the target named is T1, Trace amine-associated receptor 1 (Homo sapiens, UniProt Q96RJ0).
T1 sequence (Q96RJ0 whole entry): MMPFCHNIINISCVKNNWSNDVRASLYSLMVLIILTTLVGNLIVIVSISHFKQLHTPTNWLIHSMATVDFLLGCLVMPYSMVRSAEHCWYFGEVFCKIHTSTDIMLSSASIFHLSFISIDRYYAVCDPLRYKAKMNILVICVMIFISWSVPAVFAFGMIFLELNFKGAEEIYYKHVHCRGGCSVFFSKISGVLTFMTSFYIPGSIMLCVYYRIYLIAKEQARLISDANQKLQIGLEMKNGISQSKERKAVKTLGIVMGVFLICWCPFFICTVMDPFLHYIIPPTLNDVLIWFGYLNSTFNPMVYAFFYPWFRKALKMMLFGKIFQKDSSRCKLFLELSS
Kind of assay: Counterscreen for antagonists of the human trace amine associated receptor 1 (hTAAR1): Fluorescence-based cell-based high throughput dose response assay to identify TAAR1 Agonists. The assay is classed as functional.

The target in assay [4] is T1, Trace amine-associated receptor 1. Kind of assay: Fluorescence-based cell-based high throughput dose response assay to identify antagonists of the human trace amine associated receptor 1 (TAAR1). It is filed as functional.
Assay [5] has as its target Ras and Rab interactor 1/Tyrosine-protein kinase ABL1 (Homo sapiens, UniProt P00519+Q13671). It is filed as functional.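 Note: biochemical TR-FRET dose-response test measuring inhibition of binding between Rin1 and Abl proteins.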
The nature of assay [6]: viability loss in HepG2 hepatoma cells – cell-based, ATP luminescence, cherry-pick, activator set 2, cytotoxicity control, dose response (AID 1053143). It is filed as functional.
Assay [7] is described as follows: OVCAR8 cell viability loss – plate reader, dry powder samples, PAX8 project, dose response (AID 743197). The assay is classed as functional, cell-based. As to conditions: OVCAR-8.
Assay [8] addresses T2, Adenosylmethionine-8-amino-7-oxononanoate aminotransferase (Mycobacterium tuberculosis, UniProt P9WQ81).
T2 sequence (P9WQ81 whole entry): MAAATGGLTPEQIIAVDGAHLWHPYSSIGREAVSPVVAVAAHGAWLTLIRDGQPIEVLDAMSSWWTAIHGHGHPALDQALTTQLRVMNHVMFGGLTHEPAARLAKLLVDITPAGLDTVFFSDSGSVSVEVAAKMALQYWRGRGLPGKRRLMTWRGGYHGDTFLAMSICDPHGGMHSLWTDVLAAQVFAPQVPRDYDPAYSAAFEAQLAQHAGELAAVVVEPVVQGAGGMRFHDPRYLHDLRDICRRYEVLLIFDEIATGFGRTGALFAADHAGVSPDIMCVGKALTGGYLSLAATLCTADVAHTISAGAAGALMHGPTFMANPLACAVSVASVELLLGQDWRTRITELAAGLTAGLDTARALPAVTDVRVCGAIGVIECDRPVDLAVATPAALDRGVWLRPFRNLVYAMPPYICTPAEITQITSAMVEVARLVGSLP
Kind of assay: Mycobacterium tuberculosis BioA enzyme inhibitor Measured in Biochemical System Using Plate Reader - 2163-02_Inhibitor_Dose_CherryPick_Activity. It is filed as functional, Mycobacterium tuberculosis UT205.

Assay [9] addresses T3, Sentrin-specific protease 8 (Homo sapiens, UniProt Q96LD8).
T3 sequence (Q96LD8 whole entry): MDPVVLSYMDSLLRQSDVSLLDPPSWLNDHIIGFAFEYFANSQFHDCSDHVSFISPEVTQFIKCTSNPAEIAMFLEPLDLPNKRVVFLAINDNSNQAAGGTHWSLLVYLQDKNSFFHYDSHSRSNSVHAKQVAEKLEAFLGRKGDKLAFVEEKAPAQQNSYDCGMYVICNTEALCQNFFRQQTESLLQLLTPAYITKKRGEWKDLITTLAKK
The assay is classed as functional.

For assay [10], the target named is T4, Sentrin-specific protease 7 (Homo sapiens, UniProt Q9BQF6).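 Note: Luminescence-based dose-response confirmation of ultra-high-throughput screening hits, measuring inhibition of SENP7.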
T4 sequence (Q9BQF6 whole entry): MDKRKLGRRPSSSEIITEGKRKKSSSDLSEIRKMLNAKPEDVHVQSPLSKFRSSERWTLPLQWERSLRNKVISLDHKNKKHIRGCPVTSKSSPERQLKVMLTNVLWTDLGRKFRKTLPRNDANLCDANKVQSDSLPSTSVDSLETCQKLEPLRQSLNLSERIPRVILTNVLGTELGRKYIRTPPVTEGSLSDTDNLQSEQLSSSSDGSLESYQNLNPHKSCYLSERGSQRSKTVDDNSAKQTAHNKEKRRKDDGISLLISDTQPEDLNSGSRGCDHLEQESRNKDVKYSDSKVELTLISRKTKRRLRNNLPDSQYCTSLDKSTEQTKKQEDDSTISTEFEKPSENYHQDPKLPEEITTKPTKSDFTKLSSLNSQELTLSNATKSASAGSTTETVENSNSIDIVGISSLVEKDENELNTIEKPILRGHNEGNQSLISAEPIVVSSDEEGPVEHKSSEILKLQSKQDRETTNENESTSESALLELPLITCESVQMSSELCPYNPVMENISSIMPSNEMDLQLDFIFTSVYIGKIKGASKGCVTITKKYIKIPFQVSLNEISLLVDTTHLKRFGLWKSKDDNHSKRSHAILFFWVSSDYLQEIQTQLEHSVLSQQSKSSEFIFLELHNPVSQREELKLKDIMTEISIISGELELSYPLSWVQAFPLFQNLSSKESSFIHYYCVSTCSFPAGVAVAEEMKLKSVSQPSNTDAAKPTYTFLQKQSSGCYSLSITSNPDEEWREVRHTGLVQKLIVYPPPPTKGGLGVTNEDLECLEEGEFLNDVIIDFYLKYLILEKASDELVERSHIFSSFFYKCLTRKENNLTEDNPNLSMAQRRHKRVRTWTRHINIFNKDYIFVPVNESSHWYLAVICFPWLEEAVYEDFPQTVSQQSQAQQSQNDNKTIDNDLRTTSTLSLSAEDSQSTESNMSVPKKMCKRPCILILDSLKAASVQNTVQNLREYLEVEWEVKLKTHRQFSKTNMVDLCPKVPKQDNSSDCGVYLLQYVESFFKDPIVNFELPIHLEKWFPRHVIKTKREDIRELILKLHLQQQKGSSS
It is filed as functional.

The target of assay [11] is T5, Sentrin-specific protease 6 (Homo sapiens, UniProt Q9GZR1).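 Note: Luminescence-based dose-response confirmatory assay of SENP6 inhibition, following up an ultra-high-throughput screen.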
T5 sequence (Q9GZR1 whole entry): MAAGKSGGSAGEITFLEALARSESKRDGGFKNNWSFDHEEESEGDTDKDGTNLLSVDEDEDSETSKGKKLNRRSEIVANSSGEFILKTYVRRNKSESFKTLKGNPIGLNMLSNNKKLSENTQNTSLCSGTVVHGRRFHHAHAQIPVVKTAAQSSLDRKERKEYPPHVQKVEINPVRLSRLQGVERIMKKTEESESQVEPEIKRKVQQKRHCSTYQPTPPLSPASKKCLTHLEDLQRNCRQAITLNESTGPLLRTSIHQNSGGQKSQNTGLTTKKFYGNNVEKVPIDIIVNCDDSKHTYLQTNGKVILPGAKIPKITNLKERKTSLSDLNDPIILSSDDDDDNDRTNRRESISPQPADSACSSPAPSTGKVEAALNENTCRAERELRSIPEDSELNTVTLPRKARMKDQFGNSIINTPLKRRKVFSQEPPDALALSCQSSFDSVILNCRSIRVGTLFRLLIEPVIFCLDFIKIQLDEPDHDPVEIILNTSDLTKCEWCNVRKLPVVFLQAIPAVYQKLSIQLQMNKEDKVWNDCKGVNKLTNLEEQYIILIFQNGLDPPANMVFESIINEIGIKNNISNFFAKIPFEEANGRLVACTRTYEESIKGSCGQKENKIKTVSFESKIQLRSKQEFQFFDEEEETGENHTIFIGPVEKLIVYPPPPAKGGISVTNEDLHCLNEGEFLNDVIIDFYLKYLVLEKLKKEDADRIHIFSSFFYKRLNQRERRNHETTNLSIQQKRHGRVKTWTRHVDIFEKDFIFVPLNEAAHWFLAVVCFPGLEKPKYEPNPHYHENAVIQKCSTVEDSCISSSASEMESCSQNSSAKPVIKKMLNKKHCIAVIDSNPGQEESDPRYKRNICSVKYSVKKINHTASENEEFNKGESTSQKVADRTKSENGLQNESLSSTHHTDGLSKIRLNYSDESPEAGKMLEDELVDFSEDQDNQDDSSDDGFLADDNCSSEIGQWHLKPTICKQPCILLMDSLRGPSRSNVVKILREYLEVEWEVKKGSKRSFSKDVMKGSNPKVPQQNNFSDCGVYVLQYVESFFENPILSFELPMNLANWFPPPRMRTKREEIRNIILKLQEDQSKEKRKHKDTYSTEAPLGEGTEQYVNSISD
The assay is classed as functional.

Assay [12] has as its target T6, Caspase-3 (Homo sapiens, UniProt P42574).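 Note: Dose-response selectivity test against caspase-3 for candidate inhibitors of sentrin-specific proteases (SENPs).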
T6 sequence (P42574 whole entry): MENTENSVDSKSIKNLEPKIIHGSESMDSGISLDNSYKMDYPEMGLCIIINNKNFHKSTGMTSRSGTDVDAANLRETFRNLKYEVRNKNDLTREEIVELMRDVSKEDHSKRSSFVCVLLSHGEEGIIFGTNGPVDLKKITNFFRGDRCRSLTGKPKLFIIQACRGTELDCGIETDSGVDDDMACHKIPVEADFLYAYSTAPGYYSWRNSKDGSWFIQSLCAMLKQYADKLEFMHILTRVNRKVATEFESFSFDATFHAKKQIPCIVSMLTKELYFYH
The assay is classed as functional.

For assay [13], the target named is Fructose-bisphosphate aldolase (Mycobacterium tuberculosis, UniProt P9WQA3). Kind of assay: Fluorescence-based biochemical high throughput dose response assay for inhibitors of the fructose-bisphosphate aldolase (FBA) of M. tuberculosis. It is filed as functional.
Chain of Fructose-bisphosphate aldolase (P9WQA3 whole entry): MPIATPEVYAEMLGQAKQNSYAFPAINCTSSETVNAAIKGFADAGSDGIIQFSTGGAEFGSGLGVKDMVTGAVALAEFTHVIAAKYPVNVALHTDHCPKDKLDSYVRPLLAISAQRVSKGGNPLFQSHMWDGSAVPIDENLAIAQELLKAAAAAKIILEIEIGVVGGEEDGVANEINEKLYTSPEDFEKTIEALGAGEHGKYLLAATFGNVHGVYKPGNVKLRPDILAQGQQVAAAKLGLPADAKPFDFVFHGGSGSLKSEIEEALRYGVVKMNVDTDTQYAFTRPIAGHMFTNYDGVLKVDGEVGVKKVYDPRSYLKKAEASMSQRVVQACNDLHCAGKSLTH
Assay [14] addresses T7, Bcl-2-related protein A1 (Mus musculus, UniProt Q07440).
T7 sequence (Q07440 whole entry): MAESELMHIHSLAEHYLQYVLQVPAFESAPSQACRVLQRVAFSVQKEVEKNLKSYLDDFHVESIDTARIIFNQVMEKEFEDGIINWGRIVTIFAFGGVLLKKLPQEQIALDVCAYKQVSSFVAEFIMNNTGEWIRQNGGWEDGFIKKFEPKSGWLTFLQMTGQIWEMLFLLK
Kind of assay: small-molecule antagonists of Bfl-1/BH3 interaction – biochemical, TR-FRET, mouse Bfl-1, confirmation (AID 621).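 Note: TR-FRET binding of GST-Bfl-1 to FITC-labelled Bid peptide via terbium antibody.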

Assay [15] has as its target T7, Bcl-2-related protein A1. Description: Bfl-1 binding inhibitors, SAR follow-up, biochemical, fluorescence polarization (AID 1070).
The nature of assay [16]: cells. It is filed as functional, cell-based.
In assay [17] the target is T1, Trace amine-associated receptor 1. Kind of assay: Fluorescence-based cell-based high throughput dose response assay to identify agonists of the human trace amine associated receptor 1 (TAAR1). It is filed as functional.
The nature of assay [18]: cells. The assay is classed as functional, cell-based. The source holds these as a separate data set.
For assay [19], the target named is T1, Trace amine-associated receptor 1. Description: Counterscreen for agonists of the human trace amine associated receptor 1 (hTAAR1): Fluorescence-based cell-based high throughput dose response assay to identify hTAAR1 agonist that also desensitize TAAR1 receptor response. It is filed as functional.
Assay [20] deals with fMet-Leu-Phe receptor (Homo sapiens, UniProt P21462). Kind of assay: formyl peptide receptor binders – dose response (AID 519). It is filed as functional.
Chain of fMet-Leu-Phe receptor (P21462 whole entry): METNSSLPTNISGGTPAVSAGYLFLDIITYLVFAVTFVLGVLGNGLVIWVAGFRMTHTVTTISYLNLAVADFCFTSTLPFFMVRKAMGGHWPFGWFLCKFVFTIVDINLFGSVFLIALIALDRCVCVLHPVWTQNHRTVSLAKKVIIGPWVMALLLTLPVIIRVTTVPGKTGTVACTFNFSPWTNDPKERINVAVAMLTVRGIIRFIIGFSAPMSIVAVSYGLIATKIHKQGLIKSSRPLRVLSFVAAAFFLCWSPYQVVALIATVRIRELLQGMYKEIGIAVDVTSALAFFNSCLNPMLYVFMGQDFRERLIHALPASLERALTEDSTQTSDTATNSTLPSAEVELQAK
A short description of assay [21]: T. cruzi growth inhibition in host cells, dose response, cell-based, plate reader, dry powder, set 2 (AID 652275). It is filed as functional.
For assay [22], the target named is Paired box protein Pax-8 (Homo sapiens, UniProt Q06710). Description: PAX8 transcriptional activity inhibition in RMG-I – RMG-I cells, luciferase, cherry-pick, dose response (AID 687027).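 Note: luciferase reporter driven by Pax8 target thyroperoxidase promoter measured by SteadyGlo luminescence.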 The assay is classed as functional, cell-based.
Chain of Paired box protein Pax-8 (Q06710 whole entry): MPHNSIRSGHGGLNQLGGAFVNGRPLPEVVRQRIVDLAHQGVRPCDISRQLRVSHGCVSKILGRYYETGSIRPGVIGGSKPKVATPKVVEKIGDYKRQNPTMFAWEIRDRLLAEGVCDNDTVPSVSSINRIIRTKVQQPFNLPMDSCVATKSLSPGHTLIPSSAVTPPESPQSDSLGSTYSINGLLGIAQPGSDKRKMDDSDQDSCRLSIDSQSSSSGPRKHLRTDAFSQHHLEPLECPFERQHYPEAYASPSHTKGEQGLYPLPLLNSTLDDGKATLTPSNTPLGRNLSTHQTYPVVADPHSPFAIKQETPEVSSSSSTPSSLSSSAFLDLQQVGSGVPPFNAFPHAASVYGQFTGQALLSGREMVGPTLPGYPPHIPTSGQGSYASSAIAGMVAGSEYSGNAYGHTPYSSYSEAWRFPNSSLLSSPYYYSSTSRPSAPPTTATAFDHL

SMILES strings stand for the structures. The source made the active and inactive calls.

Chain of Ras and Rab interactor 1/Tyrosine-protein kinase ABL1 (P00519 whole entry): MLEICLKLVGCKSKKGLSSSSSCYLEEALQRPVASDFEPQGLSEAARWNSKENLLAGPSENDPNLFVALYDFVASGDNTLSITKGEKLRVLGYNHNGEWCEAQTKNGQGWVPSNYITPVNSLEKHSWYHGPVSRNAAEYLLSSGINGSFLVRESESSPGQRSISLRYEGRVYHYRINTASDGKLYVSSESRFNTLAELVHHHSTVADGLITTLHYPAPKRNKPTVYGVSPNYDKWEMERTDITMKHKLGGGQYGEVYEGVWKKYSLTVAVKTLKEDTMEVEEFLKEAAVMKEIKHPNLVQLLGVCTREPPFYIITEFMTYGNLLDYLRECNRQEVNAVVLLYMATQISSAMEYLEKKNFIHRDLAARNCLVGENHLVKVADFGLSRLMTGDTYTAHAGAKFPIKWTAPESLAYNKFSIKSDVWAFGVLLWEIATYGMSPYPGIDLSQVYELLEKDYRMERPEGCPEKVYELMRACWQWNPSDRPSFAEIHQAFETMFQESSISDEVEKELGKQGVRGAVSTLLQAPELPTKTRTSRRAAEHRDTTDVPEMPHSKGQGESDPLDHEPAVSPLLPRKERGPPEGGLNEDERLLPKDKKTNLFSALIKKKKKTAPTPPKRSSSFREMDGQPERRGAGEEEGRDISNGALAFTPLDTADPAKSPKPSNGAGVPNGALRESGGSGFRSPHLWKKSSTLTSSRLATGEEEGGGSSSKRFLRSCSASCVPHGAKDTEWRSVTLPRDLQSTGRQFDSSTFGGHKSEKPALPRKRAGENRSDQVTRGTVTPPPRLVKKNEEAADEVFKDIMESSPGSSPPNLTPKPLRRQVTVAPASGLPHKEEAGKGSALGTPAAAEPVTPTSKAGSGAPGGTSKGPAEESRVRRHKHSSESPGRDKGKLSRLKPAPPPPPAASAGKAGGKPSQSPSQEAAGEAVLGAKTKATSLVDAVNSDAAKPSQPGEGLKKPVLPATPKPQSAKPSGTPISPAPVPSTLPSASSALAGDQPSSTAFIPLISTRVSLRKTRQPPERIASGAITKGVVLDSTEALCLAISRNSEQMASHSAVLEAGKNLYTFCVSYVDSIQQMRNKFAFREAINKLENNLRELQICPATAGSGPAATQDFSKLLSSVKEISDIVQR
Chain of Ras and Rab interactor 1/Tyrosine-protein kinase ABL1 (Q13671 whole entry): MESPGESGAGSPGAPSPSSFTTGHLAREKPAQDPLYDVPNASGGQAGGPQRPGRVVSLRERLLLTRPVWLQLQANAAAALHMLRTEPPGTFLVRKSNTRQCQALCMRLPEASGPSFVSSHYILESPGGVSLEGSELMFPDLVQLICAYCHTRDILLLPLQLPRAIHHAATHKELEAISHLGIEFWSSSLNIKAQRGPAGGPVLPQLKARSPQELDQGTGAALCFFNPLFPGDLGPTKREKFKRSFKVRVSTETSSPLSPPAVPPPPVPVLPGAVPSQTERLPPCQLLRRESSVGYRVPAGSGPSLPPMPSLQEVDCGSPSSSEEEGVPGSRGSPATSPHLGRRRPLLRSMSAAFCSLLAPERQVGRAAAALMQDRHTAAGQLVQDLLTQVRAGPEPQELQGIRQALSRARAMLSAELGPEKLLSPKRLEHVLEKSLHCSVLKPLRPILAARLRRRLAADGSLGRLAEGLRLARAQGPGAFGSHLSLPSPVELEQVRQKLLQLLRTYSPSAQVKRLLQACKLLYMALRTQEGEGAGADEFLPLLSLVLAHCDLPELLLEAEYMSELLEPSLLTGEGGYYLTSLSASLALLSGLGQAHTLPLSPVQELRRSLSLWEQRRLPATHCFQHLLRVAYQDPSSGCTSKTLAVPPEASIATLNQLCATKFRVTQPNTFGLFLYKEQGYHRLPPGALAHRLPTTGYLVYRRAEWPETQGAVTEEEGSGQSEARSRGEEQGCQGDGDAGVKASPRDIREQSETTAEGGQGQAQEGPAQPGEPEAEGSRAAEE

Regarding `COc1ccc(-n2nnnc2C(C2CC2)N2CCC(n3c(O)nc4ccccc43)CC2)cc1` (configuration not stated), the EC50 in assay [1] is > 29.9 µM (inactive); in assay [3] it was 22.4 µM (inactive). Also, the IC50 was > 29.9 µM (inactive) in [2], > 9.96 µM (active) in [4] and 19.8 µM (inactive) in [5].

Turning to `O=C(NCCn1cc(SCc2ccccc2F)c2ccccc21)c1c(F)cccc1F`, the EC50 in assay [1] and in assay [3] was > 29.9 µM (inactive) throughout. Further, the IC50 was 38.4 µM (inactive) in [2] and 3.49 µM (active) in [4].

Consider `CCOc1ccc2oc(C(=O)Nc3cc(C)ccn3)c(C)c2c1`, for which the AC50 in [6] was 26 µM (active).

Take `COc1ccc(-c2ccc3c(c2)[C@H]2[C@H](CCN2C(=O)Cc2cccnc2)[C@H](CO)N3C)cc1`: the AC50 in assay [7] was > 70 µM (inactive); in assay [8], 1.57 µM (active).

Take `S=C(c1ccc(OCc2ccccc2)cc1)N1CCCC1`: the IC50 in [9] is 3.69 µM (active); in assay [10], 14 µM (active); in assay [11] it was 11.1 µM (active); in [12] it was 8.38 µM (active); in assay [13], > 9.98 µM (inactive).

Take `COc1ncccc1-c1nnn(-c2ccc(F)cc2)n1`: the IC50 in [14] and in [15] was > 100 µM (not active) each time. For the same compound, in assay [6], the AC50 was 26 µM (active).

Turning to `O=C(O)[C@H]1CCCC[C@H]1C(=O)NCCc1ccccc1`, the IC50 in assay [16] was > 29.9 µM (inactive); in assay [19] it was 7.35 µM (active). In addition, the EC50 in assay [17] was 0.37 µM (active); in [18] it was > 29.9 µM (inactive).

For the compound `Cc1cccc(C2CC(c3ccc(Cl)cc3)Nc3nc(N)nn32)c1` (configuration not stated), the Ki in assay [20] is > 66.7 µM (inactive).

As for `C[C@H]1CN([C@@H](C)CO)C(=O)c2cccc(NC(=O)c3ccncc3)c2O[C@@H]1CN(C)Cc1cccc(Cl)c1`, in [21], the AC50 is 0.0155 µM (active).

Consider `Cc1cc2nc3n(c2cc1C)CC1CC(C(=O)NCCc2cccs2)N(C)C31` (configuration not stated), for which the IC50 is > 29.9 µM (inactive) in assay [16] and 8.5 µM (active) in assay [19]. Moreover, the EC50 in [17] was 2 µM (active); in assay [18], > 29.9 µM (inactive).

For `C[C@@H]1CCCCO[C@H](CN(C)C(=O)Nc2ccc(C(F)(F)F)cc2)[C@@H](C)CN([C@@H](C)CO)C(=O)c2cc(NS(=O)(=O)c3ccc(F)cc3)ccc2O1`, the AC50 in assay [7] is > 70 µM (inactive); in assay [22], 4.88 µM (active).

Values taken from ChEMBL document CHEMBL1201862, “PubChem BioAssay data set” (2004).
